What was measured:
[1] = tested on: TGF-β1, CTGF, fibronectin and collagen IV; assay: Renal TGF-β1, CTGF and ECM proteins by RT-PCR, western blot and immunostaining; assay type: in vivo, rat
Description: Tissue sections were deparaffinised by sequential exposure to xylene and ethanol, dehydrated and then exposed to H2O2 to eliminate endogenous peroxidase activity. The kidney sections were then blocked with 2% (wt/vol.) BSA and exposed to specific antibodies against AGE, AGER, TGF-β1, CTGF, fibronectin and collagen type IV. Biotinylated anti-rabbit or anti-mouse IgG was then applied as a secondary antibody, followed by horseradish peroxidase conjugated streptavidin. The staining was visualised by reaction with 3,3′-diaminobenzidine tetrahydrochloride and then counterstained with haematoxylin. All the sections were examined by light microscopy (Olympus AX70) and photographed with Retiga 2000R camera.
Renal cortical tissues were homogenised in PBS buffer with 1% (vol./vol.) Nonidet P-40, 0.5% (wt/vol.) sodium deoxycholate, 0.1% (wt/vol.) SDS and protease inhibitor mixture (Roche, Indianapolis, Ind., USA). Homogenates were centrifuged for 15 min at 4° C. and at 12,000 rpm and the supernatant fractions collected and stored at −70° C. Nuclear extracts were prepared as described previously. Protein concentrations were measured using the Bio-Rad DC Assay kit. Total RNA was isolated using the RNA-STAT-60 reagent (Tel-Test, Friendswood, Tex., USA). Western blot assay Protein samples (50 μg) were separated on 10 to 20% gradient Tris-glycine Criterion gels (Bio-Rad) and then transferred to nitrocellulose membranes. The membranes were blocked with 5% (wt/vol.) skimmed milk in PBS before incubation with anti-TGF-β1, anti-CTGF, anti-AGER, anti-phospho-p38 MAPK, anti-phospho-p44/42 MAPK and anti-p65 NF-κB antibodies. Immunoreactive proteins were detected by enhanced chemiluminescence (Western Lightning Chemiluminescence Reagent; Perkin-Elmer, Waltham, Mass., USA) using horseradish peroxidase-labelled secondary antibodies. Equal amounts of protein loading were confirmed by restaining the membranes with antibodies against β-actin, p38 MAPK or p44/42 MAPK for cytosolic extracts or with histone H2B for nuclear extracts. Band intensities were quantified using a densitometer (Quantity One, Bio-Rad). Reverse transcriptase-polymerase chain reaction Total RNA (1 μg) was used for the RT reaction using the GeneAmp RNA PCR kit (Applied Biosystems, Foster City, Calif., USA). Total cDNA was then used in PCR reactions containing gene specific primers [Electronic supplementary material (ESM) Table 1] paired with Quantum 18S rRNA internal standards (Ambion, Austin, Tex., USA). Multiplex PCR reactions were performed in a GeneAmp 9700 (Applied Biosystems). […] The densities of amplified products corresponding to specific genes and 18S rRNA were quantified with Quantity One software (Bio-Rad). Results are expressed as the means of the ratios of Tgfb1, Ctgf or Ager band densities to the 18S rRNA band density.

[2] = tested on: Cybb, the gene encoding for the gp91phox subunit of NADPH; assay: Kidney expression of Cybb (data not shown); assay type: in vivo, rat; settings: ZDF rats
[3] = tested on: Zucker diabetic fatty (ZDF) rat; assay: Kidney lipid peroxidation (malondialdehyde, TBARS), Example 1; assay type: in vivo; settings: ZDF animals
Method: To assess lipid peroxidation in renal cortical homogenates, malondialdehyde, an end-product of lipid peroxidation, was measured as thiobarbituric acid reactive substances by calorimetric reaction as described. Reaction was carried in the presence of EDTA and antioxidant butylated hydroxytoluene, and the absorbance was measured at 532 nm (UV-1601; Shimadzu Scientific Instruments, Columbia, Md., USA). Hydrolysed 1,1,3,3-tetramethoxypropane was used as standard [prepared by incubating 10 mmol/l tetramethoxypropane with 1% (vol./vol.) H2SO4 for 2 h at room temperature]. Results are expressed as nanomole malondialdehyde per milligram protein.

[4] = tested on: experimental type 1 diabetic nephropathy; settings: previous studies (24); cited from earlier work
[5] = tested on: Zucker diabetic fatty rats (ZDF, fa/fa); assay: Metabolic data of ZDF rats treated with LR-90 or LR-102 (Example 2); assay type: in vivo, rat
Method: The present Example presents the results of an investigation of the effects of LR-90, an inhibitor of AGE/ALE formation, in male Zucker diabetic fatty rats (ZDF, fa/fa) fed with Purina 5008 diet until 40 weeks of age, and their hetorozygous lean littermates (ZDF fa/+) as non-hyperglycemic controls. LR-90 at 50 mg/L of drinking water was given to a subgroup of ZDF rats after the rats developed spontaneous diabetes at 13 weeks of age. At 40 weeks of age, and before killing the animals, their weight was measured; HbA1c, plasma glucose, insulin, triglycerides, cholesterol, CRP and urinary albumin and creatinine concentrations were measured. After euthanizing all animals, organs such as the kidneys, eyeballs, liver, heart, aortae and pancreas were dissected and subjected to immunohistochemical staining, RT-PCR, Western blotting and microscopy.

[6] = kidneys of ZDF rats, to almost similar levels as in ZL rats
[7] = ZDF rats at 40 weeks of age, Mean ± SEM

For `CC(C)(Oc1ccc(NC(=O)Nc2ccc(Cc3ccc(NC(=O)Nc4ccc(OC(C)(C)C(=O)O)cc4)c(Cl)c3)cc2Cl)cc1)C(=O)O` [LR-90, methylene bis[4,4′-(2-chlorophenylureidophenoxyisobutyric acid)]], the “mRNA expression and protein production of CTGF” value ([1]; kidneys of ZDF animals) was “significantly attenuated”, the “mRNA expression and protein production of TGF-β1” value ([1]; kidneys of ZDF animals) was “significantly attenuated” and the “positive immunostaining for collagen IV” value [1, 6] was “markedly reduced”. The “positive immunostaining for fibronectin” value [1, 6] was “markedly reduced”, the “increased kidney expression of Cybb” value [2] was “attenuated” and the “reduction of kidney lipid peroxidation” value [3] was about 40%. The “development of experimental type 1 diabetic nephropathy” value [4] was “prevented”, the Plasma glucose ([5]; ZDF rats at 40 weeks of age, drug in drinking water, Mean ± SEM) was 25 ± 2.3 mM and the Cholesterol [5, 7] was 244 ± 13 mg/dL. The HbA1c [5, 7] was 2.89 ± 0.07%, the “Plasma CRP” value [5, 7] was 0.58 ± 0.09 mg/mL and the “Plasma insulin, ELISA” value [5, 7] was 0.64 ± 0.10 ng/mL. For the same compound, the “Plasma insulin, RIA” value [5, 7] was 0.63 ± 0.04 ng/mL, the Triglycerides [5, 7] was 384 ± 51 mg/dL and the “Urinary Albumin” value [5, 7] was 27.8 ± 4.8 mg/24 h. For the same compound, the effect on hyperglycemia ([5]; ZDF rats, Example 2) was “no effect”, the effect on hyperlipidemia ([5]; ZDF rats, Example 2) was “significantly reduced” and the “increase in CRP levels” value ([5]; ZDF rats, Example 2) was “attenuated”.

— patent US8124655B2, “Use of LR-90 and LR-102 to overcome insulin resistance” (City of Hope, priority 2007, dated 2012)
